Results from patent US11339124B2, “3-(benzylamino)-4-(cyclohexylamino)-n-(2-(piperazin-1-yl)ethyl)benzenesulfonamide derivatives and related ferrostatin-1 analogues as cell death inhibitors for treating e.g. stroke” (VIB VZW, priority 2018, dated 2022).

Tests used:
[1] = Microsomal (metabolic) stability, human liver microsomes; conditions: human, liver microsomes
Description: (§1) By using the measured microsomal in vitro t1/2, a calculated value for the intrinsic clearance Clint can be determined. This value states the measure in which a drug that is not bound to plasma proteins is irreversibly removed from the body by the liver. This value is expressed in mL/min/kg which can be interpreted as the volume of blood in mL that is cleared of a drug per minute per kilogram of body weight. The CLint is less sensitive to used variables in ADME assays since the amount of microsomal protein and the volume of the incubation are all taken into account. (Sohlenius-Sternbeck et al., Xenobiotica, 2012, 42, 841-853)
(§2) Liver microsomes (20 mg protein/ml), NADPH regenerating system solutions A & B and 5 mM stock compound solution (100% DMSO) are prepared. The reaction mixture finally contains 713 μL purified water, 200 μL 0.5 M potassium phosphate pH 7.4, 50 μL NADPH regenerating system solution A (BD Biosciences Cat. No. 451220), 10 μL NADPH regenerating system solution B (BD Biosciences Cat. No. 451200) and 2 μL of the compound stock solution (10 μM final concentration). The reaction mixture is warmed to 37° C. for 5 minutes in a water bath and the reaction is initiated by addition of 25 μL of liver microsomes (0.5 mg protein/ml final concentration). At different time points (0 min-15 min-30 min-60 min-120 min-240 min-360 min-24 h), 20 μL is withdrawn and 80 μL cold acetonitrile is added on ice for 10 minutes. Then the mixtures are centrifuged at 13 000 rpm for 5 min at 4° C. The supernatant is further diluted in 90% water/MeCN (1/25) to fall within the range of the LC/MS/MS analysis. At each time point, the compound is analysed using LC/MS/MS with the same UPLC system as described above. A standard curve of six points was made to fit the measured concentrations. Verapamil was used as a positive control.
(§3) All obtained readouts were processed using Microsoft Excel. In order to determine the microsomal half-life t1/2 of the compounds, the rate constant k was determined by plotting the exponential decay graphs using GraFit. Microsomal t1/2 was determined using the following formula: […]

[2] = Plasma stability, rat plasma; format: in vitro ADME; conditions: 37° C., remaining parent compound, read-out: Plasma stability (% recovery after 6 h), Rat
Experimental: (§4) 5 μl of a 10 mM stock solution of the compound in DMSO was added to 995 μl of plasma to obtain a 50 μM final solution. The mixture was gently shaken for 6 h at 37° C. Aliquots of 100 μl were taken at various time points (0, 0.5 h, 1 h, 2 h, 3 h and 6 h) and diluted with 400 μl of cold methanol (stored at 4° C.). The suspension was centrifuged at 14000 rpm for 5 min. 50 μl of the supernatant was diluted with 950 μl of methanol and analysed with LC/MS/MS. The samples were analysed in triplicate. The experiment was done in duplicate. […] Enalapril maleate was used as a control in mice, rats, and in human.

[3] = Microsomal (metabolic) stability, mouse liver microsomes; conditions: liver microsomes, pH 7.4
Description: as §1, §2, §3

[4] = Plasma stability, mouse plasma; format: in vitro ADME; conditions: 37° C., remaining parent compound, read-out: Plasma stability (% recovery after 6 h), Mouse
Experimental: as §4

[5] = tested on: IMR-32 Neuroblastoma cells; test: Erastin-induced ferroptosis in IMR-32 neuroblastoma cells (Sytox Green cell death readout); format: cell-based; conditions: Homo sapiens; IMR-32 cells, 10 μM erastin, compounds 1 nM to 1 μM, triplicate; read-out: IC50, antiferroptotic activity in response to erastin-induced ferroptosis
Experimental: In the present invention the potency of a compound inhibiting (or reducing) ferroptosis and/or oxytosis are determined in in vitro or in vivo assays. Typically in vitro assays are used to measure the potency of a candidate compound. Examples of suitable in vitro assays are cellular assays. One non-limiting example of an assay involves the use of the IMR-32 neuroblastoma cell line. The latter is stimulated to enter into ferroptosis upon stimulation with 10 μM erastin, a documented ferroptosis inducer (see for example Dixon et al (2012) Cell 149, 1060-1072 and ferroptosis inhibitors are evaluated for the prevention of erastin induced ferroptosis. Yet another assay is based the glutamate-induced cell death in the hippocampal cell line HT22 and ferroptosis/oxytosis inhibitors are evaluated for the prevention of cell death (see Henke N. et al (2013) Cell Death and Disease 4, e470). Still another assay is based on the sorafinib induced cell death (described to be iron dependent cell death) in hepatocellular carcinoma cells and ferroptosis inhibitors are evaluated for the prevention of cell death (see Louandre C. et al (2013) Int. J. Cancer 133, 1732). The calculated potency of a compound inhibiting ferroptosis and/or oxytosis is typically depicted as an IC50 value. Examples of suitable in vivo assays are typically pre-clinical disease models of for example mice for the diseases benefiting the application of ferroptosis and/or oxytosis inhibitors, as described herein. One non-limiting example of an in vivo assay is based on inducing liver damage in mice by administering the herbicide diquat dibromide monohydrate and ferroptosis inhibitors are evaluated based on reduced levels of liver transaminases in serum (see Ran Q et al (2004) J. Biol. Chem. 279, 53, 55137).
The IC50 values for the individual compounds of the invention were determined in the neuroblastoma, IMR-32 cell line. In brief, IMR-32 cells were subjected to 10 μM erastin, the latter compound is known to induce ferroptosis. A concentration gradient (ranging from 1 nM to 1 μM) of the compounds was applied to the cells. These experiments were performed in a 96-well format (in triplicate), and cell death was analyzed in a fluorescent plate reader by use of a fluorescent cell death dye (1.5 μM Sytox Green). The IC50 values depicted in Table 1 are the concentration values for the individual compounds which are able to overcome ferroptosis.

[6] = Plasma stability, human plasma; format: in vitro ADME; conditions: 37° C., remaining parent compound, read-out: Plasma stability (% recovery after 6 h), Human
Experimental: as §4

[7] = Microsomal (metabolic) stability, rat liver microsomes; conditions: rat, liver microsomes
Description: as §1, §2, §3

[8] = Kinetic solubility (turbidimetric method); format: physicochemical; conditions: 10 mM PBS pH 7.4, 2% DMSO, test range 3.125-200 μM, 2 h at 37° C.
Experimental: A turbidimetric method was used. First a series of DMSO compound stock solutions was prepared ([…]). An aliquot of 4 μL stock solution was added to 196 μL PBS buffer (pH 7.4). A series of concentrations were prepared (3.13-200 μM), including a blank on a microtiter plate. (2% DMSO-D6) The microtiter plate was shaken for 10 seconds and incubated for 2 hours at 37° C. When there was no turbidity measured at a given concentration the sample was assumed to be dissolved.

## O=S(=O)(NCCN1CCOCC1)c1ccc(NC2CCCCC2)c(NCc2ccccc2)c1 [Compound 35, 3-(benzylamino)-4-(cyclohexylamino)-N-(2-morpholinoethyl)benzenesulfonamide]
[1]; pH 7.4
  CLint scaled at 10 µM: 22.6 ± 8.1 mL/min/kg
[1]; pH 7.4, Microsomal stability (t1/2), human liver microsomes, 0.5 mg protein/ml, 10 μM compound, 37° C.
  half-life at 10 µM: 58.8 ± 21 min
[2]
  recovery at 6 h, 50 μM: 100%
[3]
  CLint scaled at 10 µM: 1220 ± 48 mL/min/kg
  half-life at 10 µM: 3.06 ± 0.12 min
[4]
  recovery at 6 h, 50 μM: 100%
[5]
  IC50: 24 nM
[6]
  recovery at 6 h, 50 μM: 100%
[7]; pH 7.4
  CLint scaled at 10 µM: 326 ± 13.2 mL/min/kg
[7]; pH 7.4, Microsomal stability (t1/2), rat liver microsomes, 0.5 mg protein/ml, 10 μM compound, 37° C.
  half-life at 10 µM: 10.4 ± 0.42 min
[8]
  Solubility (kinetic): 50 to 100 µM
